# Reference: US20100285959A1, “HERBICIDAL MIXTURES” (priority 2006, published 2010)
# Columns and labels:
# velvetleaf (ABUTH) [1] = assay: Test 16 greenhouse, post- and preemergence; conditions: 15 DAA
# velvetleaf (ABUTH) [2] = assay: Test 18 greenhouse, post- and preemergence; conditions: 15 DAA
# velvetleaf (ABUTH) [3] = assay: Test 17 greenhouse, post- and preemergence; type: in vivo, Abutilon theophrasti; conditions: 12 DAA
# Text: Plants were watered as needed.
# [4] = system: Florida beggarweed (DEDTO); assay: Test 12 field trial, preemergence; type: in vivo, Desmodium tortuosum; conditions: Cpd 2 or Cpd 1 62 g a.i./ha, Diuron 2000 g a.i./ha
# Text: (§1) In early-mid spring season, corn seeds (hybrid ‘Pioneer 3041’) were planted 5 cm deep and sugarcane nodes (variety RB-72.454) were planted 10 cm deep in separate plots in a clay soil having 2.6% organic matter and a pH of 5.6. Plots were 24 m long by 1.5 m wide with rows spaced 80 cm (corn) or 140 cm (sugarcane) apart. Corn seeds were spaced 15 cm apart and sugarcane nodes were spaced 10 cm apart within the rows. At the same time, weed seeds were broadcast over the surface of separate plots without a crop, one weed species per plot. The weed plots were rotary tilled to incorporate the weed seeds to a variety of depths. The field was managed using conventional tillage practices.
# [5] = system: Italian cocklebur (XANSI); assay: Test 12 field trial, preemergence; type: in vivo, Xanthium strumarium ssp. italicum; conditions: Cpd 2 or Cpd 1 62 g a.i./ha, Diuron 2000 g a.i./ha
# Text: as §1
# wild poinsettia (EPHHL) = assay: Test 12 field trial, preemergence; type: in vivo, Euphorbia heterophylla; conditions: Cpd 2 or Cpd 1 62 g a.i./ha, Diuron 2000 g a.i./ha
# Text: as §1
# [6] = system: broadleaf buttonweed (BOILF); assay: Test 12 field trial, preemergence; type: in vivo, Borreria latifolia; conditions: Cpd 2 or Cpd 1 62 g a.i./ha, Diuron 2000 g a.i./ha
# Text: as §1
# common sugarcane (SACOF) = assay: Test 12 field trial, preemergence; type: in vivo, Saccharum officinarum; conditions: Cpd 2 or Cpd 1 62 g a.i./ha, Diuron 2000 g a.i./ha
# Text: as §1
# sicklepod (CASOB) = assay: Test 12 field trial, preemergence; type: in vivo, Cassia obtusifolia; conditions: Cpd 2 or Cpd 1 62 g a.i./ha, Diuron 2000 g a.i./ha
# Text: as §1
# [7] = system: tropical spiderwort (COMBE); assay: Test 12 field trial, preemergence; type: in vivo, Commelina benghalensis; conditions: Cpd 2 or Cpd 1 62 g a.i./ha, Diuron 2000 g a.i./ha
# Text: as §1
# common blackjack (BIDPI) = assay: Test 12 field trial, preemergence; type: in vivo, Bidens pilosa; conditions: Cpd 2 or Cpd 1 62 g a.i./ha, Diuron 2000 g a.i./ha
# Text: as §1
# common purslane (POROL) = assay: Test 12 field trial, preemergence; type: in vivo, Portulaca oleracea; conditions: Cpd 2 or Cpd 1 62 g a.i./ha, Diuron 2000 g a.i./ha
# Text: as §1
# [8] = system: Ipomoea grandiflora (IPOGF); assay: Test 12 field trial, preemergence; type: in vivo; conditions: Cpd 2 or Cpd 1 62 g a.i./ha, Diuron 2000 g a.i./ha
# Text: as §1
# wild spikenard (HPYSU) = assay: Test 12 field trial, preemergence; type: in vivo; conditions: Cpd 2 or Cpd 1 62 g a.i./ha, Diuron 2000 g a.i./ha
# Text: as §1
# arrowleaf sida (SIDRH) = assay: Test 12 field trial, preemergence; type: in vivo, Sida rhombifolia; conditions: Cpd 2 or Cpd 1 62 g a.i./ha, Diuron 2000 g a.i./ha
# Text: as §1
# flint corn (ZEAMI) = assay: Test 12 field trial, preemergence; type: in vivo, Zea mays L. ssp. indurata; conditions: Cpd 2 or Cpd 1 62 g a.i./ha, Diuron 2000 g a.i./ha
# Text: as §1
# slender amaranth (AMAVI) = assay: Test 12 field trial, preemergence; type: in vivo, Amaranthus viridis; conditions: Cpd 2 or Cpd 1 62 g a.i./ha, Diuron 2000 g a.i./ha
# Text: as §1
structure (smiles),measurement,setting,value
O=C(O)c1cc(Oc2ccc(C(F)(F)F)cc2Cl)ccc1[N+](=O)[O-] [Acifluorfen],"Obs response, scale 0 to 100","velvetleaf (ABUTH) [1]; Postemergence, 7.5 g a.i./ha",0
same,"Obs response, scale 0 to 100","velvetleaf (ABUTH) [1]; Postemergence, 15 g a.i./ha",0
same,"Obs response, scale 0 to 100","velvetleaf (ABUTH) [1]; Postemergence, 30 g a.i./ha",0
same,"Obs response, scale 0 to 100","velvetleaf (ABUTH) [1]; Preemergence, 7.5 g a.i./ha",0
same,"Obs response, scale 0 to 100","velvetleaf (ABUTH) [1]; Preemergence, 15 g a.i./ha",2
same,"Obs response, scale 0 to 100","velvetleaf (ABUTH) [1]; Preemergence, 30 g a.i./ha",2
C#CCOc1cc(-n2nc3n(c2=O)CCCC3)c(Cl)cc1Cl [Azafenidin],Postemergence ABUTH Obs,velvetleaf (ABUTH) [2]; alone at 7.5 g a.i./ha,46
same,Preemergence ABUTH Obs,velvetleaf (ABUTH) [2]; alone at 7.5 g a.i./ha,18
same,Postemergence ABUTH Obs,velvetleaf (ABUTH) [2]; alone at 15 g a.i./ha,73
same,Preemergence ABUTH Obs,velvetleaf (ABUTH) [2]; alone at 15 g a.i./ha,35
same,Postemergence ABUTH Obs,velvetleaf (ABUTH) [2]; alone at 30 g a.i./ha,81
same,Preemergence ABUTH Obs,velvetleaf (ABUTH) [2]; alone at 30 g a.i./ha,67
same,Postemergence ABUTH Obs,velvetleaf (ABUTH) [2]; alone at 45 g a.i./ha,86
same,Preemergence ABUTH Obs,velvetleaf (ABUTH) [2]; alone at 45 g a.i./ha,68
Cc1nn(-c2cc(CC(Cl)C(=O)O)c(Cl)cc2F)c(=O)n1C(F)F (stereo not shown) [Carfentrazone],"Obs response, scale 0 to 100","velvetleaf (ABUTH) [3]; Postemergence, 7.5 g a.i./ha",70
same,"Obs response, scale 0 to 100","velvetleaf (ABUTH) [3]; Postemergence, 15 g a.i./ha",79
same,"Obs response, scale 0 to 100","velvetleaf (ABUTH) [3]; Postemergence, 30 g a.i./ha",82
same,"Obs response, scale 0 to 100","velvetleaf (ABUTH) [3]; Preemergence, 7.5 g a.i./ha",4
same,"Obs response, scale 0 to 100","velvetleaf (ABUTH) [3]; Preemergence, 15 g a.i./ha",8
same,"Obs response, scale 0 to 100","velvetleaf (ABUTH) [3]; Preemergence, 30 g a.i./ha",8
CN(C)C(=O)Nc1ccc(Cl)c(Cl)c1 [Diuron],DEDTO Obs,[4]; 15 DAA,100
same,DEDTO Obs,[4]; 29 DAA,100
same,DEDTO Obs,[4]; 48 DAA,100
same,DEDTO Obs,[4]; 61 DAA,95
same,XANSI Obs,[5]; 15 DAA,60
same,XANSI Obs,[5]; 29 DAA,40
same,XANSI Obs,[5]; 48 DAA,40
same,XANSI Obs,[5]; 61 DAA,40
same,EPHHL Obs,wild poinsettia (EPHHL); 15 DAA,60
same,EPHHL Obs,wild poinsettia (EPHHL); 29 DAA,40
same,EPHHL Obs,wild poinsettia (EPHHL); 48 DAA,20
same,EPHHL Obs,wild poinsettia (EPHHL); 61 DAA,40
same,BOILF Obs,[6]; 15 DAA,99
same,BOILF Obs,[6]; 29 DAA,100
same,BOILF Obs,[6]; 48 DAA,100
same,BOILF Obs,[6]; 61 DAA,95
same,SACOF Obs,common sugarcane (SACOF); 15 DAA,0
same,SACOF Obs,common sugarcane (SACOF); 29 DAA,0
same,SACOF Obs,common sugarcane (SACOF); 48 DAA,0
same,SACOF Obs,common sugarcane (SACOF); 61 DAA,5
same,CASOB Obs,sicklepod (CASOB); 15 DAA,90
same,CASOB Obs,sicklepod (CASOB); 29 DAA,90
same,CASOB Obs,sicklepod (CASOB); 48 DAA,60
same,CASOB Obs,sicklepod (CASOB); 61 DAA,40
same,COMBE Obs,[7]; 15 DAA,99
same,COMBE Obs,[7]; 29 DAA,100
same,COMBE Obs,[7]; 48 DAA,100
same,COMBE Obs,[7]; 61 DAA,100
same,BIDPI Obs,common blackjack (BIDPI); 15 DAA,100
same,BIDPI Obs,common blackjack (BIDPI); 29 DAA,100
same,BIDPI Obs,common blackjack (BIDPI); 48 DAA,100
same,BIDPI Obs,common blackjack (BIDPI); 61 DAA,100
same,POROL Obs,common purslane (POROL); 15 DAA,100
same,POROL Obs,common purslane (POROL); 29 DAA,100
same,POROL Obs,common purslane (POROL); 48 DAA,100
same,POROL Obs,common purslane (POROL); 61 DAA,100
same,IPOGF Obs,[8]; 15 DAA,80
same,IPOGF Obs,[8]; 29 DAA,80
same,IPOGF Obs,[8]; 48 DAA,40
same,IPOGF Obs,[8]; 61 DAA,40
same,HPYSU Obs,wild spikenard (HPYSU); 15 DAA,75
same,HPYSU Obs,wild spikenard (HPYSU); 29 DAA,60
same,HPYSU Obs,wild spikenard (HPYSU); 48 DAA,40
same,HPYSU Obs,wild spikenard (HPYSU); 61 DAA,20
same,SIDRH Obs,arrowleaf sida (SIDRH); 15 DAA,100
same,SIDRH Obs,arrowleaf sida (SIDRH); 29 DAA,100
same,SIDRH Obs,arrowleaf sida (SIDRH); 48 DAA,100
same,SIDRH Obs,arrowleaf sida (SIDRH); 61 DAA,100
same,ZEAMI Obs,flint corn (ZEAMI); 15 DAA,20%
same,ZEAMI Obs,flint corn (ZEAMI); 29 DAA,20%
same,ZEAMI Obs,flint corn (ZEAMI); 48 DAA,20%
same,ZEAMI Obs,flint corn (ZEAMI); 61 DAA,25%
same,AMAVI Obs,slender amaranth (AMAVI); 15 DAA,100
same,AMAVI Obs,slender amaranth (AMAVI); 29 DAA,100
same,AMAVI Obs,slender amaranth (AMAVI); 48 DAA,100
same,AMAVI Obs,slender amaranth (AMAVI); 61 DAA,100
